Read-outs that look alike come from different tables or passages of the source. Where a SMILES comes first, the peptide text is derived from it.
Biological target: T1, LmjIPCS (inositol phosphorylceramide synthase from L. major) (Leishmania major, UniProt E9AFX2)
T1 sequence (E9AFX2 1-338): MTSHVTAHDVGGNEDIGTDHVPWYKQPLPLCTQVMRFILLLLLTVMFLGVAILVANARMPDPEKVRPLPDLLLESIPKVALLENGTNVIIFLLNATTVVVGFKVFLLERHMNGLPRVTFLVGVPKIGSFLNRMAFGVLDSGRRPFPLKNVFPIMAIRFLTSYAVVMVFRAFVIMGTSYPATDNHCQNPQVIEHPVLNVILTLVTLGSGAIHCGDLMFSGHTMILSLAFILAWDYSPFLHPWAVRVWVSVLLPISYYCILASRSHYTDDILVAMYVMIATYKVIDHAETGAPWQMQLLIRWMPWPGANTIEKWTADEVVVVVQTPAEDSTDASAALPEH
Assay: biochemical
Assay type: biochemical
Design: inhibition: dose or concentration left out as unconfirmed
Details: for inhibition at 20000 µM: read-out: 20mM inhibition LmjIPCS; for inhibition: read-out: inhibition LmjIPCS

[1] = NINDS set screen, single concentration printed as 20mM
[2] = screening of NINDS set, sheet Screen 1
[3] = single concentration 20mM as printed, screening of NINDS set, sheet Screen 1

Molecule: CC1(C)[C@@H](O)CC[C@]2(C)[C@H]3C(=O)C=C4[C@H]5C[C@@](C)(C(=O)O)CC[C@]5(C)CC[C@@]4(C)[C@]3(C)CC[C@@H]12
- inhibition at 20000 µM: 7%

Molecule: CCCn1c(=O)c2[nH]c(C3CCCC3)nc2n(CCC)c1=O
- inhibition: 2.66%

Molecule: COc1cccc(OC)c1OCCNCC1COc2ccccc2O1 (stereo not drawn)
- 20mM inhibition LmjIPCS: -4.65%

Molecule: O=C(O)c1nc2cc(Cl)c(Cl)cc2nc1O
- inhibition (NINDS set screen): -14%

Molecule: C=CC1=C(C(=O)O)N2C(=O)[C@@H](NC(=O)/C(=N\O)c3csc(N)n3)[C@H]2SC1
- inhibition at 20000 µM: 9%

Molecule: CN1CCC(OC(c2ccccc2)c2ccccc2)CC1
- 20mM inhibition LmjIPCS: 65%

Molecule: CCN(CC)C(=S)SSC(=S)N(CC)CC
- inhibition at 20000 µM: 16%

Molecule: CCOC(=O)[C@H](CCc1ccccc1)N[C@@H](C)C(=O)N1CCC[C@H]1C(=O)O
- inhibition at 20000 µM: -20%

Molecule: CCOC(=O)C1=C(O)C(=O)N(Cc2ccccc2)C1
- 20mM inhibition LmjIPCS: -1.71%

Molecule: NCCCCCCNS(=O)(=O)c1cccc2c(Cl)cccc12
- 20mM inhibition LmjIPCS: 59%

Molecule: CSCC[C@H](NC=O)C(=O)N[C@@H](CC(C)C)C(=O)N[C@@H](Cc1ccccc1)C(=O)O
- inhibition at 20000 µM: 19%

Molecule: NC(Cc1c[nH]cn1)C(=O)Nc1ccc2ccccc2c1 (stereo not drawn)
- 20mM inhibition LmjIPCS [1]: 47%

Molecule: FC(F)(F)c1cccc(N2CCNCC2)c1
- 20mM inhibition LmjIPCS: 54%

Molecule: CC(N/C(=N\C#N)Nc1ccncc1)C(C)(C)C (stereo not drawn)
- inhibition at 20000 µM: 12%

Molecule: NC(=O)CN1CCCC1=O
- inhibition: 6%

Molecule: CN1CCCN=C1/C=C/c1cccs1
- inhibition at 20000 µM: 20%

Molecule: CCOC(=O)[C@H](CCc1ccccc1)N[C@@H](C)C(=O)N1Cc2ccccc2C[C@H]1C(=O)O
- inhibition at 20000 µM: 5.45%

Molecule: CCCc1nn(C)c2c(=O)[nH]c(-c3cc(S(=O)(=O)N4CCN(C)CC4)ccc3OCC)nc12
- 20mM inhibition LmjIPCS: 50%

Molecule: CC(=O)NC(C(=O)O)C(C)(C)SN=O (stereo not drawn)
- inhibition at 20000 µM: 9%

Molecule: NC(=O)c1ccc[n+]([C@@H]2O[C@H](COP(=O)([O-])OP(=O)(O)OC[C@H]3O[C@@H](n4cnc5c(N)ncnc54)[C@H](OP(=O)(O)O)[C@@H]3O)[C@@H](O)[C@H]2O)c1
- inhibition at 20000 µM: 7%

Molecule: COc1cnc(NS(=O)(=O)c2ccc(N)cc2)nc1
- inhibition at 20000 µM: 21%

Molecule: CC1=C(CC(=O)O)c2cc(F)ccc2/C1=C\c1ccc([S+](C)[O-])cc1 (stereo not drawn)
- inhibition: 12%

Molecule: COc1ccc(/C=C/C(=O)Nc2ccccc2C(=O)O)cc1OC
- inhibition [2]: 6.57%

Molecule: Nc1nc(N)c2nc(-c3ccccc3)c(N)nc2n1
- 20mM inhibition LmjIPCS [1]: 36%

Molecule: CCOC(N)=O
- inhibition at 20000 µM: 11%

Molecule: CCCCC(=O)N(Cc1ccc(-c2ccccc2-c2nnn[nH]2)cc1)[C@H](C(=O)O)C(C)C
- inhibition: 20%

Molecule: COc1ccc(CCN(C)CCCC(C#N)(c2ccc(OC)c(OC)c2)C(C)C)cc1OC (stereo not drawn)
- 20mM inhibition LmjIPCS: 42%

Molecule: 1R,2S-PHENYLPROPYLAMINE
- 20mM inhibition LmjIPCS: -2.19%

Molecule: COC(=O)[C@H](Cc1ccccc1)NC(=O)[C@@H](N)CC(=O)O (H-Asp-Phe-OMe)
- inhibition [2]: 10%

Molecule: CC(C)C[C@H](NC(=O)CN)C(=O)N[C@@H](Cc1ccccc1)C(=O)O (H-Gly-Leu-Phe-OH)
- inhibition at 20000 µM: 11%

Molecule: CC=CC(=O)N(CC)c1ccccc1C (mixture of isomers) [CROTAMITON]
- inhibition at 20000 µM: 22%

Molecule: OC[C@H]1O[C@@H](O[C@@H]2[C@@H](CO)OC(O)(CO)[C@H]2O)[C@H](O)[C@@H](O)[C@H]1O (mixture of isomers) [LACTULOSE]
- inhibition at 20000 µM: 26%

Molecule: C#CC1(O)CC[C@H]2[C@@H]3CCC4=CC(=O)CC[C@@H]4[C@H]3CC[C@@]21CC (mixture of isomers) [NORGESTREL]
- inhibition at 20000 µM: 17%

Molecule: CN(N=O)C(=O)N[C@H]1C(O)O[C@H](CO)[C@@H](O)[C@@H]1O (mixture of isomers) [STREPTOZOSIN]
- inhibition at 20000 µM: 16%

Molecule: O=C(O)CCCC[C@@H]1CCSS1 (racemic) [THIOCTIC ACID]
- 20mM inhibition LmjIPCS [1]: 55%

Molecule: N[C@@H]1C[C@H]1c1ccccc1 (racemic) [TRANYLCYPROMINE]
- 20mM inhibition LmjIPCS [1]: 49%

Molecule: O[C@@H]1CCCC[C@H]1N1CCC(c2ccccc2)CC1 (racemic) [VESAMICOL]
- inhibition at 20000 µM: 14%

Molecule: CC(C)CC(NC(=O)OCC1c2ccccc2-c2ccccc21)C(=O)O (stereo in doubt)
- inhibition at 20000 µM: 12%

Molecule: COc1ccc2c(c1OC)C(=O)OC2[C@H]1c2cc3c(cc2CCN1C)OCO3 (stereo in doubt) [1R,9S-HYDRASTINE]
- inhibition at 20000 µM: 10%

Molecule: CC[C@@H](C)C(=O)O[C@H]1[C@H](O)[C@H]2[C@@H](CN3C[C@@H](C)CC[C@H]3[C@@]2(C)O)[C@@H]2C[C@]34O[C@]5(O)[C@@H](OC(=O)[C@](C)(O)[C@@H](C)O)CC[C@@]3(C)[C@@H]5[C@@H](OC(C)=O)[C@@H](OC(C)=O)[C@H]4[C@@]21O (stereo in doubt) [PROT[…]]
- inhibition at 20000 µM: 14%

Molecule: CNNC [1,2-DIMETHYLHYDRAZINE]
- 20mM inhibition LmjIPCS: 15%

Molecule: COc1ccccc1N1CCNCC1 [1- (2-METHOXYPHENYL)PIPERAZINE]
- 20mM inhibition LmjIPCS: 30%

Molecule: Cn1c(=O)[nH]c2nc[nH]c2c1=O [1-METHYLXANTHINE]
- inhibition [2]: 11%

Molecule: N=C(N)NC(=N)Nc1ccccc1 [1-PHENYLBIGUANIDE]
- 20mM inhibition LmjIPCS [3]: 11%

Molecule: CC1(C)[C@H]2CC[C@@]1(C)C(=O)C2 [1R-CAMPHOR]
- 20mM inhibition LmjIPCS [1]: 46%

Molecule: C[C@@H](N)[C@@H](O)c1ccccc1 [1S,2R-PHENYLPROPANOLAMINE]
- 20mM inhibition LmjIPCS: 19%

Molecule: O=c1[nH]c2cc(Cl)c(Cl)cc2[nH]c1=O [2,3-DIHYDROXY-6,7-DICHLOROQUINOXALINE]
- inhibition: 4%

Molecule: Cc1cc(C(C)(C)C)c(O)c(C(C)(C)C)c1 [2,6-DI-t-BUTYL-4-METHYLPHENOL]
- 20mM inhibition LmjIPCS [1]: 36%

Molecule: Sc1nc2ccccc2s1 [2-MERCAPTOBENZOTHIAZOLE]
- inhibition at 20000 µM: 24%

Molecule: O=c1cc[nH]c(=S)[nH]1 [2-THIOURACIL]
- inhibition at 20000 µM: 7%

Molecule: c1ccc2c(Cc3c[nH]c4ccccc34)c[nH]c2c1 [3,3'-DIINDOLYLMETHANE]
- 20mM inhibition LmjIPCS [1]: 37%

Molecule: O=[N+]([O-])c1cc(O)c(O)c([N+](=O)[O-])c1 [3,5-DINITROCATECHOL]
- 20mM inhibition LmjIPCS: 8%

Molecule: NCCCS(=O)(=O)O [3-AMINOPROPANESULPHONIC ACID]
- 20mM inhibition LmjIPCS [3]: 3.28%

Molecule: CC(C)Cn1c(=O)n(C)c(=O)c2[nH]cnc21 [3-ISOBUTYL-1-METHYLXANTHINE]
- 20mM inhibition LmjIPCS: 11%

Molecule: CC1=NN(c2ccccc2)C(=O)C1 [3-METHYL-1-PHENYL-2-PYRAZOLIN-5-ONE]
- 20mM inhibition LmjIPCS: 4.33%

Molecule: Cn1c(=O)[nH]c(=O)c2[nH]cnc21 [3-METHYLXANTHINE]
- inhibition at 20000 µM: 12%

Molecule: NCCCCC(=O)O [5-AMINOPENTANOIC ACID]
- inhibition: -2.68%

Molecule: O=C(O)c1cc2cc(Cl)ccc2[nH]1 [5-CHLOROINDOLE-2-CARBOXYLIC ACID]
- inhibition [2]: 9%

Molecule: C[C@H]1O[C@@H](n2cc(F)c(=O)[nH]c2=O)[C@H](O)[C@@H]1O [5-FLUORO-5'-DEOXYURIDINE]
- 20mM inhibition LmjIPCS [3]: 3.33%

Molecule: O=C(O)c1cc2cc(F)ccc2[nH]1 [5-FLUOROINDOLE-2-CARBOXYLIC ACID]
- 20mM inhibition LmjIPCS: 51%

Molecule: O=C(O)c1cc([N+](=O)[O-])ccc1NCCCc1ccccc1 [5-NITRO-2-PHENYLPROPYLAMINOBENZOIC ACID]
- 20mM inhibition LmjIPCS: 15%

Molecule: NCCCCCC(=O)O [6-AMINOCAPROIC ACID]
- 20mM inhibition LmjIPCS: 43%

Molecule: NC(=O)c1ccc(N)nc1 [6-AMINONICOTINAMIDE]
- inhibition at 20000 µM: 7.54%

Molecule: CC(=O)OCC(=O)[C@@]1(O)CC[C@H]2[C@@H]3C[C@H](C)C4=CC(=O)C=C[C@]4(C)[C@H]3[C@@H](O)C[C@@]21C [6alpha-METHYLPREDNISOLONE ACETATE]
- 20mM inhibition LmjIPCS [3]: 9%

Molecule: O=C(O)c1cc(O)c2ccc(Cl)cc2n1 [7-CHLOROKYNURENIC ACID]
- inhibition [2]: 9%

Molecule: O=[N+]([O-])c1cccc2cn[nH]c12 [7-NITROINDAZOLE]
- inhibition (NINDS set screen): 24%

Molecule: Cn1c(=O)c2[nH]c(C3CCCC3)nc2n(C)c1=O [8-CYCLOPENTYLTHEOPHYLLINE]
- inhibition at 20000 µM: 4.71%

Molecule: Nc1c2c(nc3ccccc13)CCCC2 [9-AMINO-1,2,3,4-TETRAHYDROACRIDINE]
- 20mM inhibition LmjIPCS: 13%

Molecule: CNC(Cc1c[nH]c2ccccc12)C(=O)O (stereo not drawn) [ABRINE (L)]
- 20mM inhibition LmjIPCS: -1%

Molecule: CCCC(=O)Nc1ccc(OCC(O)CNC(C)C)c(C(C)=O)c1 (stereo not drawn) [ACEBUTOLOL]
- inhibition: -2.11%

Molecule: CC(=O)Nc1ccc(OC(=O)c2ccccc2O)cc1 [ACETAMINOSALOL]
- inhibition (NINDS set screen): -0.337%

Molecule: CC(=O)Nc1ccccc1 [ACETANILIDE]
- inhibition at 20000 µM: 3.75%

Molecule: CC(=O)NO [ACETOHYDROXAMIC ACID]
- 20mM inhibition LmjIPCS [1]: 34%

Molecule: COc1cc(C(C)=O)cc(OC)c1O [ACETOSYRINGONE]
- inhibition at 20000 µM: 21%

Molecule: CCOC(=O)C(Cc1ccc(O)cc1)NC(C)=O (stereo not drawn) [ACETYL TYROSINE ETHYL ESTER]
- inhibition [2]: 3%

Molecule: CC(=O)N[C@@H](CC(C)C)C(=O)O [ACETYL-L-LEUCINE]
- inhibition at 20000 µM: 8%

Molecule: CC(=O)O[C@H](CC(=O)[O-])C[N+](C)(C)C [ACETYLCARNITINE]
- inhibition at 20000 µM: -17%

Molecule: CC(=O)OCC[N+](C)(C)C [ACETYLCHOLINE]
- 20mM inhibition LmjIPCS: 58%

Molecule: CC(=O)N[C@@H](CS)C(=O)O [ACETYLCYSTEINE]
- 20mM inhibition LmjIPCS: 53%

Molecule: CC(=O)N[C@@H]1[C@@H](O)[C@H](O)[C@@H](CO)O[C@H]1O [ACETYLGLUCOSAMINE]
- 20mM inhibition LmjIPCS: -19%

Molecule: CC(=O)N[C@@H](Cc1c[nH]c2ccccc12)C(N)=O [ACETYLTRYPTOPHANAMIDE]
- inhibition [2]: 1.65%

Molecule: CC(=O)N[C@@H](Cc1c[nH]c2ccccc12)C(=O)O [ACETYLTRYPTOPHAN]
- inhibition at 20000 µM: -17%

Molecule: CC(=O)N[C@@H](CCC(=O)O)C(=O)O [ACET[…]]
- inhibition at 20000 µM: -20%

Molecule: CC(=O)NCCCCCC(=O)O [ACEXAMIC ACID]
- inhibition [2]: 6%
